Results on 39 compounds are retold here after US9079866B2, “Flap modulators” (JANSSEN PHARMACEUTICA NV, priority 2013, dated 2015).

Where a name gives a salt, the structure may show the parent alone. Some results are limits rather than exact numbers.

Chain of human FLAP (P20292 whole entry): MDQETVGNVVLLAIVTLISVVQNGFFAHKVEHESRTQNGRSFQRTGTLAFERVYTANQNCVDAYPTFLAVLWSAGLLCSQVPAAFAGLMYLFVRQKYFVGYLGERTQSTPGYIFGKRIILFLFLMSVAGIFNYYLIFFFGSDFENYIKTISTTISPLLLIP

The first assay addresses human FLAP (Homo sapiens (Human), UniProt P20292). Put plainly: FLAP binding assay (HTRF format). The conditions noted are these: human FLAP wild type, HTRF format; average of two plates, duplicates. How it is done: The ability of the compounds of the present invention to treat a FLAP-mediated disease and/or disorder, or associated symptoms or complications thereof, was determined using the following procedures. Binding assay data represent the average value obtained from two different assay plates, with samples run in duplicate on each plate. Human whole blood assay data represent a single replicate on an assay plate using whole blood from at least one healthy donor.
Data are expressed as a HTRF ratio.
`Nc1ncc(-c2ccc(-c3ccccc3S(=O)(=O)N3CCNC(=O)C3)cc2F)cn1` [Example 306, 4-{[4′-(2-Aminopyrimidin-5-yl)-3′-fluorobiphenyl-2-yl]sulfonyl}piperazin-2-one trifluoroacetic acid salt] gave a Ki of 397 nM.
Still for that read-out and setting: then `Nc1ncc(-c2ccc(-c3ccccc3S(N)(=O)=O)cc2F)cn1` [Example 302, 4′-(2-Aminopyrimidin-5-yl)-3′-fluorobiphenyl-2-sulfonamide trifluoroacetic acid salt], with 2500 nM; and `CN(C)S(=O)(=O)c1ccccc1-c1ccc(-c2cnc(N)nc2)c(F)c1` [Example 299, 4′-(2-Aminopyrimidin-5-yl)-3′-fluoro-N,N-dimethylbiphenyl-2-sulfonamide trifluoroacetic acid salt], with 121 nM.
Same read-out and setting: then `Nc1ncc(-c2ccc(-c3ccccc3S(=O)(=O)N3CCNCC3)cc2F)cn1` [Example 290, 5-[3-Fluoro-2′-(piperazin-1-ylsulfonyl)biphenyl-4-yl]pyrimidin-2-amine trifluoroacetic acid salt], with 940 nM; and `CS(=O)(=O)c1ccccc1-c1ccc(-c2ccc(N)nc2)c(F)c1` [Example 341, 5-(3-Fluoro-2′-(methylsulfonyl)-[1,1′-biphenyl]-4-yl)pyridin-2-amine], with greater than 10000 nM.

Still in this assay, the particulars now being: read-out: FLAP Binding wild type HTRF Ki.
As to `Nc1ncc(-c2ccc(-c3cccnc3S(=O)(=O)C3CCNC3)cc2F)cn1` (stereo not drawn) [Example 804, 5-(2-Fluoro-4-(2-(pyrrolidin-3-ylsulfonyl)pyridin-3-yl)phenyl)pyrimidin-2-amine formic acid salt], the inhibition constant Ki was 636 nM.
`Nc1ncc(-c2ccc(-c3cccnc3S(=O)(=O)C3CCNCC3)cc2F)cn1` [Example 827, 5-{2-Fluoro-4-[2-(piperidin-4-ylsulfonyl)pyridin-3-yl]phenyl}pyrimidin-2-amine formic acid salt]: the inhibitory constant (Ki) is greater than 10000 nM.

Staying with this assay, now noted: wild type FLAP, HTRF format.
Take `CCc1ccccc1-c1ccc(-c2cnc(N)cn2)c(F)c1` [Example 480, 5-(2′-Ethyl-3-fluorobiphenyl-4-yl)pyrazin-2-amine]: the affinity corresponds to a Ki of 354 nM.
Same read-out and setting: then `Nc1ncc(-c2ccc(-c3cccnc3OCCO)cc2F)cn1` [Example 649, 2-({3-[4-(2-Aminopyrimidin-5-yl)-3-fluorophenyl]pyridin-2-yl}oxy)ethanol], with greater than 10000 nM; and `Nc1ncc(-c2ccc(-c3ccccc3OCC(=O)O)cc2F)cn1` [Example 644, {[4′-(2-Aminopyrimidin-5-yl)-3′-fluorobiphenyl-2-yl]oxy}acetic acid], with greater than 10000 nM; and `Nc1ncc(-c2ccc(-c3ccccc3C(=O)N3CCOC(C(F)(F)F)C3)cc2F)cn1` (racemic) [Example 766, racemic 5-(3-Fluoro-2′-{[2-(trifluoromethyl)morpholin-4-yl]carbonyl}biphenyl-4-yl)pyrimidin-2-amine], with 1910 nM.
In turn, `CC(C)(C)NS(=O)(=O)c1ccccc1-c1ccc(-c2ncc3cc[nH]c3n2)c(F)c1` [Example 418, N-tert-Butyl-3′-fluoro-4′-(7H-pyrrolo[2,3-d]pyrimidin-2-yl)biphenyl-2-sulfonamide] came in with an inhibition constant Ki of 1250 nM.
On the same count and under the same terms, then `CC(C)(C)NS(=O)(=O)c1ccccc1-c1ccc(-c2cnc(NS(C)(=O)=O)cn2)c(F)c1` [Example 748, N-(tert-Butyl)-3′-fluoro-4′-(5-(methylsulfonamido)pyrazin-2-yl)-[1,1′-biphenyl]-2-sulfonamide], with greater than 10000 nM; and `Nc1ncc(-c2ccc(-c3ccccc3S(=O)(=O)c3cnccn3)cc2F)cn1` [Example 719, 5-[3-Fluoro-2′-(pyrazin-2-ylsulfonyl)biphenyl-4-yl]pyrimidin-2-amine], with greater than 10000 nM; and `Nc1ncc(-c2ccc(-c3ccccc3C(=O)N3CCS(=O)(=O)CC3)cc2F)cn1` [Example 516, 5-{2′-[(1,1-Dioxidothiomorpholin-4-yl)carbonyl]-3-fluorobiphenyl-4-yl}pyrimidin-2-amine], with greater than 10000 nM.
Still for that read-out and setting: then `CC(=O)Nc1ccccc1-c1ccc(-c2cnc(N)cn2)c(F)c1` [Example 459, N-[4′-(5-Aminopyrazin-2-yl)-3′-fluorobiphenyl-2-yl]acetamide], with greater than 10000 nM.
On the same count and under the same terms, then `Cc1ccccc1-c1ccc(-c2cnc(N)cn2)c(F)c1` [Example 470, 5-(3-Fluoro-2′-methylbiphenyl-4-yl)pyrazin-2-amine], with 620 nM; and `Cc1cc(-c2ccccc2S(C)(=O)=O)ccc1-c1cnc(N)cn1` [Example 590, 5-[3-Methyl-2′-(methylsulfonyl)biphenyl-4-yl]pyrazin-2-amine], with greater than 10000 nM.
With `C[C@@H](CO)NC(=O)c1ccccc1-c1ccc(-c2cnc(N)nc2)c(F)c1` [Example 517, 4′-(2-Aminopyrimidin-5-yl)-3′-fluoro-N-[(1S)-2-hydroxy-1-methylethyl]biphenyl-2-carboxamide], the Ki was greater than 10000 nM.
Same read-out and setting: then `CC(C)(C)NS(=O)(=O)c1ccccc1-c1ccc(-c2ccc3c(c2)CC(=O)N3)c(F)c1` [Example 595, N-tert-Butyl-3′-fluoro-4′-(2-oxo-2,3-dihydro-1H-indol-5-yl)biphenyl-2-sulfonamide], with roughly 2490 nM; and `Nc1cnc(-c2ccc(-c3ccccc3OCCO)cc2F)cn1` [Example 628, 2-{[4′-(5-Aminopyrazin-2-yl)-3′-fluorobiphenyl-2-yl]oxy}ethanol], with 336 nM; and `Nc1ncc(-c2ccc(-c3ccccc3C(=O)N3CCOCC3)cn2)cn1` [Example 677, 5-{5-[2-(Morpholin-4-ylcarbonyl)phenyl]pyridin-2-yl}pyrimidin-2-amine], with greater than 10000 nM.
Still for that read-out and setting: the value for `Nc1ncc(-c2ccc(-c3ccccc3S(=O)(=O)c3ncccn3)cc2F)cn1` [Example 718, 5-[3-Fluoro-2′-(pyrimidin-2-ylsulfonyl)biphenyl-4-yl]pyrimidin-2-amine] was greater than 10000 nM; that for `Nc1cnc(-c2ccc(-c3ccccc3C(=O)NC3CCOCC3)cc2F)cn1` [Example 756, 4′-(5-Aminopyrazin-2-yl)-3′-fluoro-N-(tetrahydro-2H-pyran-4-yl)biphenyl-2-carboxamide] was greater than 10000 nM; that for `N#Cc1nc(-c2ccc(-c3ccccc3C(=O)N3CCOCC3)cc2F)cnc1N` [Example 416, 3-Amino-6-[3-fluoro-2′-(morpholin-4-ylcarbonyl)biphenyl-4-yl]pyrazine-2-carbonitrile] was 1250 nM.
Same read-out and setting: the value for `Nc1cnc(-c2ccc(-c3cccnc3S(=O)(=O)C3CCNCC3)cc2F)cn1` [Example 832, 5-{2-Fluoro-4-[2-(piperidin-4-ylsulfonyl)pyridin-3-yl]phenyl}pyrazin-2-amine hydrochloride] was 1310 nM.
With `CC(C)(C)NS(=O)(=O)c1ccccc1-c1ccc(-c2cnc(N)nc2C#N)c(F)c1` [Example 703, 4′-(2-Amino-4-cyanopyrimidin-5-yl)-N-tert-butyl-3′-fluorobiphenyl-2-sulfonamide], the inhibitory constant (Ki) is greater than 10000 nM.
The same measure, in the same setting: then `Nc1ccc(-c2ccc(-c3ccccc3S(N)(=O)=O)cc2F)cn1` [Example 662, 4′-(6-Aminopyridin-3-yl)-3′-fluoro-[1,1′-biphenyl]-2-sulfonamide trifluoroacetate], with roughly 1220 nM; and `Nc1ncc(-c2ccc(-c3ccccc3C(=O)N3CC(O)C3)cc2F)cn1` [Example 791, [2-[4-(2-Aminopyrimidin-5-yl)-3-fluoro-phenyl]phenyl]-(3-hydroxyazetidin-1-yl)methanone], with greater than 10000 nM.
The compound `CC(C)(C)NS(=O)(=O)c1ccccc1-c1ccc(-c2cn3c(C#N)cccc3n2)c(F)c1` [Example 584, N-tert-Butyl-4′-(5-cyanoimidazo[1,2-a]pyridin-2-yl)-3′-fluorobiphenyl-2-sulfonamide] registered an inhibitory constant (Ki) greater than 10000 nM.
`NC(=O)CS(=O)(=O)c1ccccc1-c1ccc(-c2cnc(N)nc2)c(F)c1` [Example 599, 2-{[4′-(2-Aminopyrimidin-5-yl)-3′-fluorobiphenyl-2-yl]sulfonyl}acetamide]: the Ki was greater than 10000 nM.
Same read-out and setting: then `Nc1cnc(-c2ccc(-c3cccnc3OCC3CCNC3)cc2F)cn1` (stereo not drawn) [Example 407, 5-{2-Fluoro-4-[2-(pyrrolidin-3-ylmethoxy)pyridin-3-yl]phenyl}pyrazin-2-amine], with greater than 10000 nM.
Take `CC(C)(C)C(=O)Nc1ncccc1-c1ccc(-c2cnc(N)nc2)c(F)c1` [Example 800, N-{3-[4-(2-Aminopyrimidin-5-yl)-3-fluorophenyl]pyridin-2-yl}-2,2-dimethylpropanamide]: the Ki was greater than 10000 nM.
For `Nc1ncc(-c2ccc(-c3ccccc3C(=O)NCCO)cc2F)cn1` [Example 761, 4′-(2-Aminopyrimidin-5-yl)-3′-fluoro-N-(2-hydroxyethyl)biphenyl-2-carboxamide], the Ki was greater than 10000 nM.
As for `Cc1cc(-c2ccccc2S(=O)(=O)N(C)C)ccc1-c1cnc(N)cn1` [Example 591, 4′-(5-Aminopyrazin-2-yl)-N,N,3′-trimethylbiphenyl-2-sulfonamide], the inhibitory constant (Ki) is roughly 2490 nM.
Same read-out and setting: the value for `Fc1cc(-c2cccnc2OCC(F)(F)F)ccc1-c1cnc2[nH]ccc2n1` [Example 397, 2-{2-Fluoro-4-[2-(2,2,2-trifluoroethoxy)pyridin-3-yl]phenyl}-5H-pyrrolo[2,3-b]pyrazine] was greater than 10000 nM; that for `Nc1ncc(-c2ccc(-c3ccccc3-c3cnc(N)nc3)cn2)cn1` [Example 855, 5-{5-[2-(2-Aminopyrimidin-5-yl)phenyl]pyridin-2-yl}pyrimidin-2-amine] was greater than 10000 nM.
Still for that read-out and setting: the value for `CC(C)(C)C(=O)Nc1ncccc1-c1ccc(-c2cnc(N)cn2)c(F)c1` [Example 801, N-{3-[4-(5-Aminopyrazin-2-yl)-3-fluorophenyl]pyridin-2-yl}-2,2-dimethylpropanamide] was greater than 10000 nM.
On the same count and under the same terms, the value for `Nc1ncc(-c2ccc(-c3ccccc3Oc3ncccn3)cn2)cn1` [Example 566, 5-{5-[2-(Pyrimidin-2-yloxy)phenyl]pyridin-2-yl}pyrimidin-2-amine] was greater than 10000 nM.
